Source: patent US20100022600A1, “METHODS AND COMPOSITIONS FOR TREATING CENTRAL NERVOUS SYSTEM TUMORS” (priority 2006, published 2010)

Columns and labels:
human glioma cells U87 = experiment: MTT viability assay, human U87 glioma cells; assay type: cell-based; conditions: 30 μM pio; 3, 5 and 7 d
Protocol: Rat C6 glioma cells were grown in DMEM and human glioma cells (U87, A172) in RPMI, supplemented with 10% (v/v) fetal calf serum, 100 U/mL penicillin and 100 U/mL streptomycin in a 5% CO2 atmosphere. Primary astrocyte cultures were prepared as described previously (J Neurosci 1998; 18: 4451-60) and grown in DMEM, supplemented with 2.5% (v/v) fetal calf serum, 100 U/mL penicillin and 100 U/mL streptomycin in a 5% CO2 atmosphere. […] Experiments were performed in triplicate.

MMP-9 = MMP-9 expression in vivo (western blot, immunohistochemistry); design: species or system rat
Protocol: (§1) For western-blot analysis, tumor-containing hemispheres were homogenized in Tris-HCl [50 mM Tris-HCl pH8, 120 mM NaCl, 5 mM EDTA, 0.5% (v/v) NP-40, […] phenylmethylsulfonyl fluoride (PMSF)] and sonicated. Homogenates were collected by centrifugation (15 min 11000 g. 4° C.) and protein concentration in the supernatant was determined using the Bio-Rad Protein Assay (Biorad, Munich, Germany). Lysates (20-40 μg) were separated on a 7% (w/v) sodium dodecyl sulfate (SDS)-polyacrylamide gel under reducing conditions and transferred to a PVDF membrane (Millipore, Bedford, Mass., USA). Non-specific binding was blocked by incubation with 5% (w/v) skimmed milk in TBS for 2 h. Following incubation with the primary antibody overnight at 4° C. [rabbit anti-BAX 1:1000, rabbit anti-cleaved caspase-3 1:1000, mouse […] 1:1000, goat anti-MMP-9 1:1000 in TBS containing 0.1% (v/v) Tween 20] membranes were washed three times in TBS/Tween for 5 min and subsequently incubated for 120 min in TBS/Tween containing secondary peroxidase-conjugated antibody at room temperature (anti-rabbit 1:1000, anti-mouse 1:1000; anti-goat 1:1000 respectively). Signals were visualized by chemoluminescence (Pierce, Rockford, Ill., USA) and band intensities were quantified with NIH Image 1.62 software (Bethesda, Md., USA). Frozen brain sections were first blocked with 5% normal goat serum or normal horse serum in PBS and subsequently incubated with rabbit anti-Ki-67 antibody (1:200 dilution), mouse anti-CS-56 (1:100 dilution), goat anti-MMP-9 (1:100 dilution) or rabbit anti-cleaved caspase-3 antibody (1:200 dilution) at 4° C. overnight. Sections were washed extensively with PBS before incubation with secondary antibodies. Incubation was carried at room temperature for 1 h. After washing with PBS three times, stained slides were mounted with PBS/glycerol (1:1) and viewed under a fluorescent microscope (Leica, Germany).

Bax = experiment: Western blot of Bax in whole-hemisphere lysates, C6 rat glioma model; assay type: in vivo
Protocol: as §1, with “USA).” for “USA). Frozen brain sections were first blocked with 5% normal goat serum or normal horse serum in PBS and subsequently incubated with rabbit anti-Ki-67 antibody (1:200 dilution), mouse anti-CS-56 (1:100 dilution), goat anti-MMP-9 (1:100 dilution) or rabbit anti-cleaved caspase-3 antibody (1:200 dilution) at 4° C. overnight. Sections were washed extensively with PBS before incubation with secondary antibodies. Incubation was carried at room temperature for 1 h. After washing with PBS three times, stained slides were mounted with PBS/glycerol (1:1) and viewed under a fluorescent microscope (Leica, Germany).”

C6 glioma tumor cells = experiment: BrdU incorporation in vivo; design: species or system rat; conditions: 14 d
Protocol: At thirteen days of treatment animals were intraperitoneally injected with 300 mg/kg of 5-bromodeoxyuridine (BrdU; Sigma, St. Louis, Mo.), a thymidine analog that incorporates into the DNA of dividing cells during S phase and can be detected immunohistochemically. Twenty-four hours later, these animals were anesthetized and perfused with phosphate-buffered saline (PBS). Brains were dissected, frozen, cut and immunostained in the following manner: Sections were fixed in 4% paraformaldehyde, washed in PBS, and incubated in 2 N HCl for 10 min at room temperature. Sections were again washed in PBS and incubated in BrdU primary antibody (rat monoclonal 1:100, Abcam, Cambridge, UK) in PBS containing 5% normal goat serum overnight at 4 C. After washing with PBS, sections were incubated in rhodamine-labeled anti-rat secondary antibody (1:100, Jackson, West Grove, Pa., USA) in PBS containing 5% normal goat serum for 1 h at room temperature. The number of dividing cells present in the tumor of these BrdU-stained sections was counted and compared to total amount of tumor cells stained with DAPI.

Ki-67 = Ki-67 immunoreactivity and proliferation-index in vivo; design: species or system rat; conditions: 9, 14 and 21 days of pio treatment
Protocol: Frozen brain sections were first blocked with 5% normal goat serum or normal horse serum in PBS and subsequently incubated with rabbit anti-Ki-67 antibody (1:200 dilution), mouse anti-CS-56 (1:100 dilution), goat anti-MMP-9 (1:100 dilution) or rabbit anti-cleaved caspase-3 antibody (1:200 dilution) at 4° C. overnight. Sections were washed extensively with PBS before incubation with secondary antibodies. Incubation was carried at room temperature for 1 h. After washing with PBS three times, stained slides were mounted with PBS/glycerol (1:1) and viewed under a fluorescent microscope (Leica, Germany). For determination of the proliferation-index, Ki-67 positive cells in pio and vehicle treated cells and animals were counted, the percentage of Ki-67 positive cells in 1×10^3 tumor cells (P1 staining used in the in vitro experiments—not shown; DAPI stain used in the in vivo experiments) calculated and statistically compared. The percentage of cleaved caspase-3 positive cells was assessed by counting the immunopositive cells in 1×10^3 tumor (DAPI stain) cells and statistically compared.

cleaved caspase-3 = experiment: Western blot of cleaved caspase-3 in whole-hemisphere lysates, C6 rat glioma model; assay type: in vivo; conditions: 6 d of pio treatment
Protocol: as §1, with “USA).” for “USA). Frozen brain sections were first blocked with 5% normal goat serum or normal horse serum in PBS and subsequently incubated with rabbit anti-Ki-67 antibody (1:200 dilution), mouse anti-CS-56 (1:100 dilution), goat anti-MMP-9 (1:100 dilution) or rabbit anti-cleaved caspase-3 antibody (1:200 dilution) at 4° C. overnight. Sections were washed extensively with PBS before incubation with secondary antibodies. Incubation was carried at room temperature for 1 h. After washing with PBS three times, stained slides were mounted with PBS/glycerol (1:1) and viewed under a fluorescent microscope (Leica, Germany).”

For `CCc1ccc(CCOc2ccc(CC3SC(=O)NC3=O)cc2)nc1` (centres unmarked) [pioglitazone, 5-[4-[2-(5-ethylpyridin-2-yl)ethoxyl]benzyl]thiazolidine-2,4-dione], the “cellular viability, effect in words” value (human glioma cells U87) was “significantly reduced cellular viability”, the “MMP-9 positive staining (immunoreactivity)” value (MMP-9; tumor margins and surrounding healthy brain tissue) was “reduced MMP-9 positive staining” and the “MMP-9 expression (western blot)” value (MMP-9; whole-hemisphere lysates) was “almost completely suppressed”. The “reduction of MMP-9 expression (densitometry)” value (MMP-9; whole-hemisphere lysates) was 81%, the “Bax-protein levels versus vehicle (densitometry), in words” value (Bax; 3, 6, 9 and 14 d) was “significant difference” and the “induction of Bax protein (densitometry)” value (Bax; 6 d of pio treatment) was 1.66 fold. For the same compound, the “upregulation of proapoptotic proteins” value (Bax; after 21 days of treatment (data not shown)) was “not associated with an upregulation of proapoptotic proteins”, the BrdU-incorporation (C6 glioma tumor cells) was “reduced” and the “percentage of BrdU positive cells” value (C6 glioma tumor cells) was “significantly lower”. For the same compound, the “Ki-67 expression in vivo” value (Ki-67) was “significant reduction of Ki-67 expression” and the “induction of cleaved caspase-3 (densitometry)” value (cleaved caspase-3) was 2.88 fold.
